Measured values published in US20030082135A1, “Pathway of RANTES-mediated chemokine synthesis in astrocytes and methods of use therefor” (priority 2001, published 2003).
“Also recorded” adds a separate entry of the source. Where two headings read alike, the source gives them in different places. Values belong to the molecule of their own block, whether it stands above or below them. Where no end group is shown, it is not given here.

Experiments:
[1] = system: primary neonatal mouse astrocyte cultures; assay: RNase protection assay (RPA) for chemokine/cytokine transcripts in astrocyte cultures; assay type: cell-based; details: for expression of transcripts for MIP-1α: PKA inhibitors alone, 3 h; for expression of TNF-α, RANTES, KC, MIP-1α, MIP-2, and MCP-1 transcripts: BALB/cJ neonatal astrocytes, chemokine for 6 h
Procedure: Astrocyte isolation and culture. […] RNA isolation and RNase protection assay (RPA). […] RNase protection assays (RPA) for chemokine message were conducted with multi-probe templates according to the manufacture's protocol (RiboQuant assay kit, BD-PharMingen, San Diego, Calif.). Gels were scanned and radioactive bands quantitated using a phosphoimager (Molecular Dynamics, Sunnyvale, Calif.). Levels of uniformly expressed housekeeping genes large ribosomal subunit protein 32-3A (L32) or glyceraldehyde-3-phosphate dehydrogenase (GAPDH), were used for normalization. The value of each chemokine receptor band divided by the value of the indicated housekeeping gene band in the same sample yielded the relative intensity. Normalized receptor expression represents the ratio of the relative intensity following treatment with chemokine versus the relative intensity of medium alone. Treatment with pharmacological inhibitors. Astrocytes were washed and resuspended in serum-and insulin-free complete medium and starved overnight. Cells were treated at 37° C. for 1 h with 100 ng/ml Pertussis toxin (PTx) before addition of RANTES or IL-1. […] The cells were harvested after a 3 h incubation with RANTES; RNA was prepared and assayed by RPA.

murine KC promoter = assay: KC promoter luciferase reporter in transfected astrocytes; assay type: cell-based, mouse; details: U0126 indicated amounts or 5 μM SB203580 plus 100 ng/ml RANTES, 24 h
Description: Plasmids, transient transfection, and luciferase activity assay. The KC reporter plasmid was constructed by using a luciferase reporter gene pGL-3 basic vector (Promega, Madison, Wis.) driven by mouse KC promoter (−2878/+43). Wild-type p90RSK expression (WT pKH3) and dominant negative p90RSK expression (ΔΔ RSK pKH3) plasmids were obtained from Dr. John Blenis, Harvard Medical School. Astrocytes were transiently transfected with Lipofectamine 2000 reagent (Life Technologies, Gaithersburg, Md.) according to the manufacturer's protocol. After 24 h, the cells were stimulated with RANTES in absence or presence of the indicated inhibitor, and luciferase activity was determined after an additional 24 h, by the procedure according to the manufacturer (Promega, Madison, Wis.). Relative luciferase activity was normalized for cell lysate protein concentration as determined by BCA protein assay kit (Pierce, Rockford, Ill.). The Relative Fold Induction is the relative intensity of the experimental sample divided by the relative intensity of the medium control.
To establish whether RANTES up-regulation of chemokine production is mediated by activation of promoter elements, primary astrocyte cultures were transiently transfected with a murine KC promoter-luciferase construct, and reporter activity was monitored after RANTES treatment.

[2] = system: MEK, ERK1/2, p90RSK, p38, SAPK/JNK phosphorylation in astrocytes; assay: Western blotting of phosphorylated MAP kinase pathway proteins in astrocyte lysates; assay type: cell-based, mouse; details: for effect on erk1/2 and RSK phosphorylation induced by H-89: 10-50 μM U0126 or 5 μM SB203580, 10 μM H-89 for 20 min
Procedure: SDS-PAGE and Western blotting. Astrocytes were treated for the indicated time with media or 100 ng/ml RANTES, eotaxin, or other materials as indicated. Cells (3×10^5 in Examples 1-3, or 2×10^4 in later Examples) were resuspended in 100 μl buffer (50 mM HEPES, pH 7.5, 150 mM NaCl, 2 mM EDTA, 2 mM EGTA, 1% Triton X-100, 50 mM Sodium fluoride, 5 mM Sodium pyrophosphate, 50 mM Sodium β-glycerophosphate, 1 mM Sodium Ortho-vanadate, 1 mM DTT, 1 mM PMSF, 10 μg/ml Leupeptin, and 10 μg/ml Aprotinin). Protein concentration of the whole cell extract was determined by BCA protein assay kit (Pierce, Rockford, Ill.). Samples (10 μg) were loaded and separated on a 10% SDS-polyacrylamide gel. After transfer to Hybond ECL nitrocellulose membrane (Amersham Pharmacia Biotech Inc, Piscataway, N.J.) or Zeta-probe blotting membranes (Bio-Rad, Richmond Calif.) blots were blocked overnight with 5% BSA at 4° C., and probed with the antibody indicated. Antibody against unphosphorylated or phosphorylated erk (Cell Signaling, Beverly, Mass.) was used at 1 μg/ml. Appropriate anti-immunoglobulin reagents were used to develop the blots by enhanced chemiluminescence (Amersham Pharmacia Biotech Inc, Piscataway, N.J.).
Little is known about the signaling mechanisms involved in astrocyte respones to chemokines. To examine components of the RANTES signal transduction pathway, phosphorylation of the MAP kinase kinase (MEK) and mitogen activated protein (MAP) kinases was examined. To minimize basal kinase activity, astrocytes were starved of serum for at least 3 h before treatment with chemokine. Whole cell lysates were separated by SDS-PAGE and examined by Western blot. Antibodies that specifically react with phosphorylated MEK or phosphorylated extracellular signal-related kinase (ERK) were used to detect the active kinases.

PKA = PKA activity assay on lysates of treated astrocytes; assay type: cell-based, mouse
Procedure: PKA activity assay. PKA activity was determined using a commercially available kit (Calbiochem, San Diego, Calif.) according to manufacturer's recommendations. Primary mouse astrocytes were grown in 6-well plates and then stimulated as described and lysed in 100 μl buffer (same buffer used for Western blotting) for 30 min. Five μl of the lysates were incubated with 20 μl PKA reaction mixture at 30° C. for 30 min. The reaction was terminated by adding 10 μl stop solution and ^32P radioactivity was counted.

[3] = system: intracellular cAMP in astrocytes; assay: Intracellular cAMP in astrocytes (EIA); assay type: cell-based, mouse; details: 1 μM forskolin, 1 h
Procedure: FIG. 8 is a set of bar graphs showing that RANTES reduced intracellular cAMP accumulation in astrocytes. Panel A. Astrocytes were treated with the indicated doses of RANTES or TCA4 for 5 min. Intracellular cAMP was detected as described in Materials and Methods. Values represent the mean±S.E.M of triplicate experiments. Panel B. Kinetics of intracellular cAMP levels. Astrocytes were treated with 100 ng/ml RANTES for indicated times. Panel C. RANTES inhibited forskolin-induced intracellular cAMP accumulation. Astrocytes were pretreated with 1 μM forskolin for 1 h then stimulated with the indicated amount of RANTES for 5 min. Intracellular cAMP was determined by EIA. Values are presented as relative cAMP level and represent the mean±S.E.M. of triplicate experiments.
To further elucidate the RANTES-mediated signaling pathway in astrocytes, intracellular cAMP levels were evaluated following chemokine stimulation. Primary mouse astrocytes were incubated with the indicated dose of RANTES or the negative control chemokine, TCA4 for 5 min and monitored for cAMP levels. RANTES (100 ng/ml) decreased intracellular cAMP levels by 68% in a dose dependent fashion (FIG. 8A).

[4] = system: CXCR4, CX3CR1, CCR1, CCR5 transcripts in astrocytes; assay: RPA for chemokine receptor transcripts in astrocytes; assay type: cell-based, mouse
Procedure: RNA isolation and RNase protection assay (RPA). RNA was prepared as in Luo, Y., et al. 1999. J Immunol 163:3985. RNase protection assays (RPA) for chemokine message were conducted with multi-probe templates according to the manufacture's protocol (RiboQuant assay kit, BD-PharMingen, San Diego, Calif.). Gels were scanned and radioactive bands quantitated using a phosphoimager (Molecular Dynamics, Sunnyvale, Calif.). Levels of uniformly expressed housekeeping genes large ribosomal subunit protein 32-3A (L32) or glyceraldehyde-3-phosphate dehydrogenase (GAPDH), were used for normalization. The value of each chemokine receptor band divided by the value of the indicated housekeeping gene band in the same sample yielded the relative intensity. Normalized receptor expression represents the ratio of the relative intensity following treatment with chemokine versus the relative intensity of medium alone.
Treatment with the RANTES-related chemokines RANTES or eotaxin, or with TNF-α also found to down-regulate expression of CX3CR1 transcripts. In addition, CXCR4 mRNA levels were decreased, while the levels of CCR1 transcripts were elevated. In contrast, little or no regulation of CCR5 was noted. The pooled results of 3-4 experiments indicate eotaxin caused an average 60% decrease in CXCR4 (P less than 0.01) and a 70% decrease in CX3CR1 mRNA (P less than 0.02) (FIG. 8.B). The effects of RANTES stimulation were similar with an average 70 and 90% reduction in CXCR4 and CX3CR1 transcripts, respectively (P less than 0.01).

Molecule: N#CC(=C(/N)Sc1ccccc1N)/C(C#N)=C(\N)Sc1ccccc1N [U0126, reference compound]
effect on H-89 induced chemokine/cytokine transcription [1]: inhibited; also recorded: blocked
effect on RANTES-induced chemokine message [1]: blocked induction of chemokine transcripts
effect on background level of RANTES transcript [1]: failed to diminish
inhibition of RANTES-induced TNF-α and chemokine transcription [1]: partially inhibited; also recorded: completely inhibited
effect on RANTES-induced KC reporter activity (murine KC promoter): inhibit reporter activity
effect on erk1/2 and RSK phosphorylation induced by H-89 [2]: blocked
effect on RANTES-induced RSK phosphorylation ([2]; varying concentrations before 100 ng/ml RANTES, 20 min): block RSK phosphorylation in a dose dependent fashion
effect on PKA activity (PKA): neither U0126 nor Raf-1 inhibitor decreased PKA activity

effects on KC and MIP-2 transcription ([1]; 500 μM, peaking at 2 h): weak and transient
Molecule: CCCC(=O)Nc1ncnc2c1ncn2[C@@H]1O[C@@H]2COP(=O)(O)O[C@H]2[C@H]1OC(=O)CCC [db-cAMP, dibutyryl cAMP, reference compound]
effect of cAMP analogue alone on transcription ([1]; 500 μM, no RANTES): Neither cAMP analogue alone had any effect
effect on astrocyte PKA activity (PKA; 1 μM forskolin, 500 μM db-cAMP or 500 μM 8-bromo-cAMP, 1 h): activated

effect on RANTES-induced chemokine message ([1]; U0126 50 μM, genistein 100 μM, wortmannin 1 μM, added 30 min prior to chemokine, 3 h RANTES): block chemokine message
Molecule: O=c1c(-c2ccc(O)cc2)coc2cc(O)cc(O)c12 [Genistein, genistein, reference compound]

Molecule: C=C[C@@]1(C)CC(=O)[C@]2(O)[C@@]3(C)[C@@H](O)CCC(C)(C)[C@@H]3[C@H](O)[C@H](OC(C)=O)[C@@]2(C)O1 [forskolin, reference compound]
increase of intracellular cAMP levels [3]: about 4 fold

Molecule: Nc1ncnc2c1nc(Br)n2C1OC2COP(O)(=S)OC2C1O (stereo not drawn) [Rp-8-bromo-cAMP, reference compound]
expression of transcripts for MIP-1α [1]: induced

expression of TNF-α, RANTES, KC, MIP-1α, MIP-2, and MCP-1 transcripts [1]: no effect
Molecule: SDF-1α

expression of transcripts for MIP-1α [1]: induced
Molecule: PKI: protein kinase A inhibitor 14-22 amide (SGRTGRRNA-NH2; UniProt P61925 14-22, looked up, fragment) [reference compound]

CX3CR1 and CXCR4 expression [4]: reduced
change in CCR5 transcripts [4]: little or no change
increase of CCR1 transcripts [4]: 55%
Molecule: TNF-α

expression of transcripts for MIP-1α [1]: induced
Molecule: O=S(=O)(NCCNC/C=C/c1ccc(Br)cc1)c1cccc2cnccc12 [H-89, reference compound]
MEK, erk1/2 and RSK phosphorylation ([2]; indicated doses, 20 min, no RANTES): induced

Molecule: C[S+]([O-])c1ccc(-c2nc(-c3ccncc3)c(-c3ccc(F)cc3)[nH]2)cc1 (stereo not drawn) [SB203580, reference compound]
effect on RANTES-mediated transcription of chemokine RNA [1]: failed to modulate
effect on RANTES-induced KC reporter activity (murine KC promoter): did not inhibit
effect on erk1/2 and RSK phosphorylation induced by H-89 [2]: fail to block

expression of TNF-α, RANTES, KC, MIP-1α, MIP-2, and MCP-1 transcripts [1]: no effect
modulation of expression of any of the receptor transcripts examined [4]: did not significantly modulate
Molecule: MCP-1: recombinant mouse CC-chemokine, purchased from BD-PharMingen

Molecule: CN(C)CCCn1cc(C2=C(c3c[nH]c4ccccc34)C(=O)NC2=O)c2ccccc21 [GF109203, reference compound]
MEK phosphorylation ([2]; protein kinase C inhibitor control, 20 min): failed to stimulate

expression of TNF-α, RANTES, KC, MIP-1α, MIP-2, and MCP-1 transcripts [1]: up-regulated
B1: MIP-1β: recombinant mouse CC-chemokine, purchased from R&D System (protein, UniProt P14097 24-92, looked up)
C-C motif chemokine 4: APMGSDPPTSCCFSYTSRQLHRSFVMDYYETSSLCSKPAVVFLTKRGRQICANPSEPWVTEYMSDLELN

B2: IL-1: recombinant murine IL-1β, purchased from Invitrogen (protein, UniProt P10749 118-269, looked up)
Interleukin-1 beta: VPIRQLHYRLRDEQQKSLVLSDPYELKALHLNGQNINQQVIFSMSFVQGEPSNDKIPVALGLKGKNLYLSCVMKDGTPTLQLESVDPKQYPKKKMEKRFVFNKIEVKSKVEFESAEFPNWYISTSQAEHKPVFLGNNSGQDIIDFTMESVSS
activation of the three MAP kinases (ERK1/2, SAPK/JNK, p38) ([2]; 20 ng/ml IL-1β, 20 min): activated

expression of TNF-α, RANTES, KC, MIP-1α, MIP-2, and MCP-1 transcripts [1]: up-regulated
B3: MIP-1α: recombinant mouse CC-chemokine, purchased from R&D System (protein, UniProt P10855 24-92, looked up)
C-C motif chemokine 3: APYGADTPTACCFSYSRKIPRQFIVDYFETSSLCSQPGVIFLTKRNRQICADSKETWVQEYITDLELNA
